Measurements reported in patent US6165998A, “Antifungal agents” (Scriptgen Pharmaceuticals, Inc., priority 1998, dated 2000).
≈ marks a conversion by molar mass, not a printed value. Entries after “also recorded” stand apart in the source; their conditions may differ. Like-named read-outs stand apart in the source and are kept apart here.

Tests used:
[1] = system: C. albicans resistant to fluconazole; experiment: Systemic candidiasis caused by fluconazole-resistant C. albicans; details: mouse, in vivo
Method: (§1) In addition, Compound 1 was efficacious in a murine model for systemic candidiasis (FIG. 10). It prolonged mean and median survival times of treated mice in the dosage range of 5 mg/kg/d to 100 mg/kg/d on aq.d., d2-11 schedule. […] The efficacy of Compound 1 was confirmed in a separate experiment using amphotericin as a control (FIG. 11). Compound 1 was also efficacious when administered orally to mice with an established systemic Candida infection (FIG. 12). […] Compound 1 is also effective against systemic candidiasis caused by a strain of C. albicans resistant to fluconazole (FIG. 13). Additional animal testing will include acute toxicity determination, route and schedule dependency in standard efficacy models, efficacy testing in immunosuppressed Candida infected mice, efficacy in an Aspergillus infection model, and pharmacokinetics following IV and oral dosing.
(§2) Compound 6 was evaluated for antifungal efficacy in a systemic candidiasis model in immunocompetent mice (FIG. 18). The compound was administered IP on a q.d., d2-11 schedule. […] 90% long term survival was seen formice treated with Compound 6 at 200/mg/kg. 30% of mice survived when treated with Compound 6 at 100 mg/kg/d. Compound 6 was also effective against systemic candidiasis when administered orally (FIG. 19) and it was effective in treating infections caused by fluconazole-resistant C. albicans.

[2] = Safety assessment on target panel
Method: (§3) A safety assessment of Compound 1 was conducted. The compound was negative for effects in a number of CNS, cardiovascular, intermediary metabolism, allergy/inflammation and gastrointestinal targets. The compound was nontoxic when administered orally at 300 mg/kg.

[3] = target: T1, C. albicans RNA polymerase II (Candida albicans, UniProt A0A1D8PUA6+Q5A8Y5); experiment: biochemical
T1 construct: RNA elongation assay on calf thymus DNA
T1 sequence (A0A1D8PUA6 1-1728): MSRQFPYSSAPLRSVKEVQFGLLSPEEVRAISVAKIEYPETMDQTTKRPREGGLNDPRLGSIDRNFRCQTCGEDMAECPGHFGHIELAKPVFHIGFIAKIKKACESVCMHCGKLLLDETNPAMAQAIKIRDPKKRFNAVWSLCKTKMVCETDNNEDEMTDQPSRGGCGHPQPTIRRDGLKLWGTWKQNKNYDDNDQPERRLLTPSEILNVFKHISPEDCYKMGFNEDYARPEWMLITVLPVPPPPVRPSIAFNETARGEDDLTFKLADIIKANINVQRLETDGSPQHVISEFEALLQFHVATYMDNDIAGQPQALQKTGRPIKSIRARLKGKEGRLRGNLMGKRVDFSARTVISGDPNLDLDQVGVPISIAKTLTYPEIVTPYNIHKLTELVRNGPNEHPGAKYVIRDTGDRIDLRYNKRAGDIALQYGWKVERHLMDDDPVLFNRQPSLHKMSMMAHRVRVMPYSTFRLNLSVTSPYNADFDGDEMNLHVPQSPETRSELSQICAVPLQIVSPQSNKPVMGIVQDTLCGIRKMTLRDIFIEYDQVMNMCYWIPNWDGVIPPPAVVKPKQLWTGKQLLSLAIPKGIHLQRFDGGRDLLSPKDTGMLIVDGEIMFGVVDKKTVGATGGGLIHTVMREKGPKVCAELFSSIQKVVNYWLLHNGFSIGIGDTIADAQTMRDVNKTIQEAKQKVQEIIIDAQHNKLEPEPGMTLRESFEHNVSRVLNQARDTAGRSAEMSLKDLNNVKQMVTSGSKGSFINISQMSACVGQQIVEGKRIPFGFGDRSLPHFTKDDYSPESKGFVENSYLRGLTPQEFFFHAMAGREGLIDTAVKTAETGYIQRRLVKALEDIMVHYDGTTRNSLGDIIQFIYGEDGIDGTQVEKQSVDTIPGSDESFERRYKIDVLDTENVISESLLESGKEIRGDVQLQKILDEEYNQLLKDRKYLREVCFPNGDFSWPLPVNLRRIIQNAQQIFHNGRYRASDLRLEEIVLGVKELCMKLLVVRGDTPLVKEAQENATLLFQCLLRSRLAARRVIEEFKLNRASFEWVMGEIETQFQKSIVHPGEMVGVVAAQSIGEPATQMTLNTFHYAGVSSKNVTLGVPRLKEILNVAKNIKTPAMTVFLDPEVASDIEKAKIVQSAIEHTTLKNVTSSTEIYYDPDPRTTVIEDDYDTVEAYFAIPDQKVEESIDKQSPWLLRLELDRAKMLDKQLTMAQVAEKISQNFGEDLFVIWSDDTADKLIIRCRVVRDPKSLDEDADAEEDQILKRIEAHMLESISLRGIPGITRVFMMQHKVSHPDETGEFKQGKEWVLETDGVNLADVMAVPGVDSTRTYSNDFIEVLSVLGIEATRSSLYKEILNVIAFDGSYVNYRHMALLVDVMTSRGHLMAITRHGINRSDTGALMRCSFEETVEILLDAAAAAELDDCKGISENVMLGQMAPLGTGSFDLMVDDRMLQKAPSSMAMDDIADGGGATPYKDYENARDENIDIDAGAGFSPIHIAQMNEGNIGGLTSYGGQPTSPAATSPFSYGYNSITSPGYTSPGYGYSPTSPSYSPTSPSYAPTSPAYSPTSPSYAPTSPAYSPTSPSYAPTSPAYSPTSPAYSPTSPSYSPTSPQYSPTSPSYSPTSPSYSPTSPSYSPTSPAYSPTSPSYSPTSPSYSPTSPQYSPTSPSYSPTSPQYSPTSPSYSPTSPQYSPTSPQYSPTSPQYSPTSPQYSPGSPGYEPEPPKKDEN
T1 sequence (Q5A8Y5 1-1234): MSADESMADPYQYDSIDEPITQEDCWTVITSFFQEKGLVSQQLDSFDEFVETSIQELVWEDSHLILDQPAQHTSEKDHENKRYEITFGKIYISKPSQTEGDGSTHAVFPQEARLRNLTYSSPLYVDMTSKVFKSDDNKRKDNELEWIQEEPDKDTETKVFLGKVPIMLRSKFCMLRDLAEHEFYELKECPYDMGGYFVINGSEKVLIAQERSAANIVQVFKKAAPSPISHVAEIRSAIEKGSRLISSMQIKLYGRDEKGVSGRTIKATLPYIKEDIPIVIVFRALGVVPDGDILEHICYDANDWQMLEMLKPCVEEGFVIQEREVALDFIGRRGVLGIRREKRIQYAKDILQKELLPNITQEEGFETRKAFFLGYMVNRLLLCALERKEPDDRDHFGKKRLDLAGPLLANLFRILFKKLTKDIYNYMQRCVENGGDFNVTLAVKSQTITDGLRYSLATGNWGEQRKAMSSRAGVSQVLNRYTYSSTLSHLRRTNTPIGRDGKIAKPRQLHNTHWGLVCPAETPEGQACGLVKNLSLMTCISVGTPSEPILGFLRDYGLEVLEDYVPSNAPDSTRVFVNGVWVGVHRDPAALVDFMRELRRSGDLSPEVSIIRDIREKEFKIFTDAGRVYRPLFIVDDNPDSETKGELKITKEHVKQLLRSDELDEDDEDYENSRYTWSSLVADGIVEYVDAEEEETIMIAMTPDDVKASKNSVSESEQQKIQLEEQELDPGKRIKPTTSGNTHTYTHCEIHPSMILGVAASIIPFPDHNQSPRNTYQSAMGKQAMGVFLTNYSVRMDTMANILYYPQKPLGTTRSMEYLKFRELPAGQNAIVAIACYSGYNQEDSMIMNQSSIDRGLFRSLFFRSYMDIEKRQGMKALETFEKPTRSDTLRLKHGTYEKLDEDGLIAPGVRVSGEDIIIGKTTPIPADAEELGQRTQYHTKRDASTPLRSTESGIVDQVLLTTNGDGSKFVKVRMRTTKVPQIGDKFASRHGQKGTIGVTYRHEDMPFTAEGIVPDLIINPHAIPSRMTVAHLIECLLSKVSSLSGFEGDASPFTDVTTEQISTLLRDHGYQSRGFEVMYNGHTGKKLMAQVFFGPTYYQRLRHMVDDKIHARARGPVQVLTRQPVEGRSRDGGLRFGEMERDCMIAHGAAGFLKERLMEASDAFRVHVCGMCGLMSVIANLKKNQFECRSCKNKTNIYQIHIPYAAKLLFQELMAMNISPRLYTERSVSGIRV
Method: The following procedure is used for cell-free high-throughput screening. A Tomtec Quadra 96-well pipetting station is used to add the reaction components to polypropylene 96-well dishes. 5 μl aliquots of test compounds dissolved in DMSO (or DMSO alone as a control) are added to wells. This is followed by 20 μl of the RNA polymerase II mixture, which consists of: 10 mM DTT, 200 mM KCl, 10 mM Mn^+2, 1.5 μM bovine serum albumin, and 0.25 μg reconstituted RNA polymerase. After allowing the test compound to interact with the RNA polymerase, 25 μl of the DNA/NTP mixture is added, containing: 1 μg calf thymus DNA, 4 μM [α-^32 P]-UTP, and 400 μM each CTP, ATP, and GTP.
After incubation for 60 min at 30 C, the reaction is stopped by addition of 50 μl 15% trichloroacetic acid (TCA). The TCA-precipitated RNA is adsorbed onto double-thick glass fiber filtermats using a Tomtec cell harvester. The wells of the microtiter plate and the filter are washed twice with 5% TCA and bound radioactivity is determined using a Wallac microbeta 1450 scintillation counter.
Inhibitory activity due to the test compound is calculated according to the formula: [formula] where cpmpositive control represents the average of the cpm in wells that received DMSO alone, and cpmsample represents the cpm in the well that received test compound. Compounds that cause at least 50% inhibition are scored as positive "hits" in this assay.
DNA-directed RNA polymerase II from Candida albicans was purified in sufficient quantity to support high throughput screening of large synthetic chemical and natural product libraries. A biochemical mechanism-based screen for detecting inhibitors of Pol II was developed and implemented. The screen is outlined in FIGS. 4A and 4B.

S. cerevisiae = experiment: Time course of fungicidal activity, S. cerevisiae; assay type: cell-based, Saccharomyces cerevisiae
Description: (§4) Compound 1 is rapidly fungicidal.

monkey kidney cells = experiment: Toxicity against monkey kidney cells; assay type: cell-based
[4] = Compound-related toxicity in treated mice; assay type: in vivo, mouse; details: IP or PO for 10 days at 100 mg/kg/d
Method: as §1, §2

[5] = system: Candida strains resistance to ketoconazole or to amphotericin B; experiment: Antifungal activity against resistant Candida strains; assay type: cell-based
[6] = system: systemic Candida infection; experiment: Murine model for systemic candidiasis; assay type: in vivo, mouse
Method: as §1, §2

[7] = Safety assessment, oral toxicity; assay type: in vivo; details: orally at 300 mg/kg
Method: as §3

[8] = system: Trichophyton mentagrophytes; experiment: Activity against human dermatophytic fungi; assay type: cell-based
C. albicans [9] = experiment: Time course of fungicidal activity, C. albicans; assay type: cell-based, Candida albicans
Description: as §4

fungal pathogens = experiment: In vitro antifungal activity (MIC); assay type: cell-based
human Pol II = target: T2, human Pol II (Homo sapiens, UniProt P24928+P30876); experiment: RNA polymerase II counterscreen, human pol II; assay type: biochemical
T2 construct: Pol II was isolated from Aspergillus nidulans, Saccharomyces cerevisiae, and human cells; endogenous in cells; enzyme isolated from them
Method: Pol II was isolated from Aspergillus nidulans, Saccharomyces cerevisiae, and human cells (FIG. 5) and used in secondary screens for fungal spectrum and specificity. Pol I and Pol III were isolated from Candida albicans and used as an additional mechanism to study specificity. Confirmed hits form the primary assay and were evaluated against this panel of polymerases. Agents with activity against Pol II from multiple fungal enzymes but not against the human counterpart were evaluated in vitro against fungal pathogens.

Fusarium culmorum = experiment: MIC against plant pathogen; assay type: cell-based
C. albicans [10] = experiment: Frequency of resistance study, C. albicans; assay type: cell-based, Candida albicans; details: selective concentrations 1× to 10× the MIC
Method: A frequency of resistance study is conducted for Compound 1 using C. albicans and S. cerevisiae, with amphotericin B as the comparator. Selective concentrations of each compound between 1× and 10× the MIC are used for each compound.

wild type C. tropicalis = experiment: MIC alone and with sub-MIC amphotericin B, C. tropicalis; assay type: cell-based, Candida tropicalis
Description: (§5) This synergy was not seen in an amphotericin-resistant strain. Subsequent experiments in a 2-way titration format confirmed the synergistic activity of the combination (FIG. 18). The synergy noted between these two agents was unique among the tested antifungal compounds, and was not noted for other promising compounds identified in the high throughput screen.

[11] = system: amphotericin-resistant strain; experiment: Synergy with amphotericin B in amphotericin-resistant strain; assay type: cell-based
Description: as §5

C. albicans [12] = experiment: MIC alone and with sub-MIC amphotericin B, C. albicans; assay type: cell-based, Candida albicans
Description: as §5

For `Oc1ccc(N=Nc2cccc(C(F)(F)F)c2)cc1` [Compound 1, 4-[-2-[3-(trifluoromethyl)phenyl]diazenyl]-phenol], the “efficacy against systemic candidiasis caused by fluconazole-resistant C. albicans” value [1] was “effective”, the “effects in safety assessment targets” value [2] was “negative” and the “fungal Pol II inhibition” value [3] was “potent activity”. For the same compound, the IC50 ([3]; Table 1, read-out: IC50 Candida pol II) was 10 µM, the inhibition at 20 µM ([3]; at 20 μM, screening of azo library) was 59% and the “exposure time after which no CFUs are recoverable” value (S. cerevisiae; S. cerevisiae cells) was 5 min. For the same compound, the “colony forming units after exposure” value (S. cerevisiae; about 10^6 S. cerevisiae cells, 25 μg/ml, 45 minutes) was “no detectable colony forming units”, the “toxicity against monkey kidney cells” value (monkey kidney cells) was “essentially non-toxic” and the compound related toxicity [4] was “No signs of compound related toxicity”. The “antifungal activity against resistant Candida strains” value [5] was “retains antifungal activity”, the “mean and median survival times of treated mice” value ([6]; 5 mg/kg/d to 100 mg/kg/d, q.d., d2-11) was “prolonged” and the “efficacy when administered orally” value ([6]; mice with an established systemic Candida infection, oral) was “efficacious”. For the same compound, the “recoverable colonies from the kidneys of treated animals” value ([6]; systemic candidiasis, mice) was “reduced”, the “toxicity when administered orally” value [7] was “nontoxic” and the “activity against Trichophyton mentagrophytes” value [8] was “active”. The “exposure time after which no CFUs are recoverable” value (C. albicans [9]; C. albicans cells) was 5 min, the “colony forming units after exposure” value (C. albicans [9]; about 10^6 C. albicans cells, 25 μg/ml, 45 minutes) was “no detectable colony forming units” and the “in vitro antifungal activity / spectrum” value (fungal pathogens) was “broad spectrum in vitro activity”. For the same compound, the MIC (fungal pathogens; Table 1, antifungal activity, read-out: MIC) was 16.6 µg/mL (≈ 62.4 µM), the IC50 (human Pol II) was 43 µM and the MIC (Fusarium culmorum) was 6.25 µg/mL (≈ 23.5 µM). The frequency of resistance (C. albicans [10]) was < 1×10^-8.

In the case of `CCCCN(CCO)c1ccc(N=Nc2c(Br)cc([N+](=O)[O-])cc2[N+](=O)[O-])c(C)c1` [Compound 2], the “fungal Pol II inhibition” value [3] is reported as “potent inhibitor”, the “fungicidal or fungistatic character” value (fungal pathogens) is reported as “does not appear to be fungicidal; also recorded: fungistatic rather than fungicidal” and the MIC (fungal pathogens; in combination with amphotericin B, strain not named) is reported as 1 to 2 µg/mL. The MIC (wild type C. tropicalis; alone) was 80 µg/mL, the MIC (wild type C. tropicalis; with sub-MIC amphotericin B (1/3 of the MIC)) was 1 to 2 µg/mL and the “synergy with amphotericin B” value [11] was “not seen”. For the same compound, the “potency against Candida albicans in vitro” value (C. albicans [12]) was “relatively low potency”, the “synergy with amphotericin B” value (C. albicans [12]) was “act synergistically” and the MIC (C. albicans [12]; alone, ketoconazole resistant C. albicans) was 80 µg/mL. The MIC (C. albicans [12]; alone, wild type C. albicans) was 80 µg/mL, the MIC (C. albicans [12]; with sub-MIC amphotericin B (1/3 of the MIC), ketoconazole resistant C. albicans) was 1 to 2 µg/mL and the MIC (C. albicans [12]; with sub-MIC amphotericin B (1/3 of the MIC), wild type C. albicans) was 1 to 2 µg/mL.
